# Read-outs that look alike come from different tables or passages of the source.
# Legend:
# Assay in all cases: MIC of compounds alone and combined with antibacterials, broth microdilution (CLSI)
# Assay type in all cases: cell-based
# [1] = system: Enterobacter cloacae (ECL) isolates; conditions: Enterobacter cloacae
# Method in brief: (§1)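 Log-phase isolates were inoculated at a final 5.10^5 CFU/mL in cation-adjusted Mueller-Hinton broth and incubated 16-20 h at 35° C in ambient air. MIC was the lowest concentration preventing visible growth; for combinations, the antibacterial MIC was read at each compound concentration.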
# [2] = system: Klebsiella pneumoniae (KPN) isolates; conditions: Klebsiella pneumoniae
# Method in brief: as §1
# [3] = system: Morganella morganii (MMO) isolates; conditions: Morganella morganii
# Method in brief: as §1
# [4] = system: Providencia rettgeri (PRE) isolates; conditions: Providencia rettgeri
# Method in brief: as §1
structure (smiles),measurement,setting,value
"C=CC1=C(C(=O)O)N2C(=O)[C@@H](NC(=O)/C(=N\O)c3csc(N)n3)[C@H]2SC1 [CDR, Cefdinir]",MIC,"[1]; strain ECL 2185D, genotype OXA-163",> 256 µg/mL
same,MIC,"[1]; strain ECL 190310, genotype AmpC",> 256 µg/mL
same,MIC,"[1]; strain ECL 190408, genotype TEM-1, CTX-M-15, OXA-1",> 256 µg/mL
same,MIC,"[1]; strain ECL 200138, genotype AmpC",> 256 µg/mL
same,MIC,"[1]; strain ECL 200322, genotype TEM-1, CTX-M-15, OXA-1",> 256 µg/mL
same,MIC,"[1]; strain ECL 260033, genotype AmpC",> 256 µg/mL
same,MIC,"[1]; strain ECL 260253, genotype TEM-1, KPC-3",> 256 µg/mL
same,MIC,"[1]; strain ECL 260323, genotype AmpC, read-out: MIC",256 µg/mL
same,MIC,"[1]; strain ECL 260508, genotype TEM-1, CTX-M-15",> 256 µg/mL
same,MIC,"[1]; strain ECL NEM146383, genotype AmpC",> 256 µg/mL
same,MIC,"[1]; strain ECL P99, genotype AmpC",> 256 µg/mL
same,MIC,"[1]; strain ECL UFR12, genotype CTX-M-9, OXA-48",> 256 µg/mL
same,MIC,"[1]; strain ECL UFR13, genotype TEM-1, SHV-12, CTX-M-9, OXA-48",> 256 µg/mL
same,MIC,"[1]; strain ECL UFR14, genotype TEM-1, SHV-12, CTX-M-15, DHA-1, OXA-1, OXA-48",> 256 µg/mL
same,MIC,"[1]; strain ECL UFR60, genotype TEM-1, CTX-M-15, KPC-2",> 256 µg/mL
same,MIC,"[1]; strain ECL UFR70, genotype TEM-1, CTX-M-15, CMY-2, OXA-1, Porin loss",> 256 µg/mL
same,MIC,"[1]; strain ECL UFR84, genotype TEM-1, AmpC, OXA-1",> 256 µg/mL
same,MIC,"[1]; strain ECL UFR85, genotype TEM-1, CTX-M-15, AmpC",> 256 µg/mL
same,MIC,"[1]; strain ECL UFR194, genotype OXA-48",> 256 µg/mL
same,MIC,"[1]; strain ECL UFR195, genotype TEM-1, CTX-M-15, OXA-1, OXA-48",> 256 µg/mL
same,MIC,"[1]; strain ECL UFR196, genotype TEM-1, CTX-M-15, OXA-1, OXA-48",> 256 µg/mL
same,MIC,"[1]; strain ECL UFR197, genotype TEM-1, CTX-M-15, OXA-1, OXA-48",> 256 µg/mL
same,MIC,"[1]; strain ECL UFR198, genotype TEM-1, SHV-12, CTX-M-15, DHA-1, OXA-1, OXA-48",> 256 µg/mL
same,MIC,"[1]; strain ECL UFR200, genotype TEM-1, SHV-12, KPC-2",> 256 µg/mL
same,MIC,"[2]; BAA1898, strain KPN BAA-1898, genotype TEM-1, SHV-11, SHV-12, KPC-2",> 256 µg/mL
same,MIC,"[2]; strain KPN 6299, genotype TEM-1, SHV-11, OXA-163, read-out: MIC",256 µg/mL
same,MIC,"[2]; strain KPN 110376, genotype TEM-1, SHV-1, CTX-M-15, OXA-1, OXA-48",> 256 µg/mL
same,MIC,"[2]; strain KPN 131119, genotype TEM-1, SHV-11, CTX-M-15, OXA-1, OXA-48",> 256 µg/mL
same,MIC,"[2]; strain KPN 140513, genotype TEM-1, SHV-11, CTX-M-15, KPC-3",> 256 µg/mL
same,MIC,"[2]; strain KPN 160143, genotype TEM-1, SHV-1, CTX-M-15, KPC-2, OXA-1",> 256 µg/mL
same,MIC,"[2]; strain KPN 190128, genotype TEM-1, SHV-32, CTX-M-15, OXA-1",> 256 µg/mL
same,MIC,"[2]; strain KPN 190270, genotype TEM-1, SHV-76, CTX-M-15, OXA-1",> 256 µg/mL
same,MIC,"[2]; strain KPN 190425, genotype TEM-1, SHV-1, CTX-M-15, OXA-1",> 256 µg/mL
same,MIC,"[2]; strain KPN 190551, genotype TEM-1, SHV-1, CTX-M-15, OXA-1",> 256 µg/mL
same,MIC,"[2]; strain KPN 200047, genotype TEM-1, SHV-32, CTX-M-15, OXA-1",> 256 µg/mL
same,MIC,"[2]; strain KPN 200327, genotype TEM-1, SHV-1, CTX-M-15, OXA-1",> 256 µg/mL
same,MIC,"[2]; strain KPN 260251, genotype TEM-1, SHV-11, SHV-12, CTX-M-15, KPC-2",> 256 µg/mL
same,MIC,"[2]; strain KPN 260252, genotype TEM-1, SHV-11, KPC-3",> 256 µg/mL
same,MIC,"[2]; strain KPN 260376, genotype SHV-1, SHV-49, OXA-1",> 256 µg/mL
same,MIC,"[2]; strain KPN 270077, genotype TEM-1, SHV-1, CTX-M-15",> 256 µg/mL
same,MIC,"[2]; strain KPN 700603, genotype SHV-18, OXA-2, read-out: MIC",4 µg/mL
same,MIC,"[2]; strain KPN ARA, genotype TEM-1, SHV-11, CTX-M-15, OXA-1, OXA-48",> 256 µg/mL
same,MIC,"[2]; strain KPN LIB, genotype SHV-11, OXA-48",> 256 µg/mL
same,MIC,"[2]; strain KPN UFR22_O, genotype TEM-1, SHV-1, OXA-48",> 256 µg/mL
same,MIC,"[2]; strain KPN UFR23, genotype TEM-1, SHV-1, OXA-48",> 256 µg/mL
same,MIC,"[2]; strain KPN UFR24, genotype TEM-1, SHV-2, SHV-11, OXA-1, OXA-48, OXA-47",> 256 µg/mL
same,MIC,"[2]; strain KPN UFR25, genotype TEM-1, SHV-11, CTX-M-15, OXA-162",> 256 µg/mL
same,MIC,"[2]; strain KPN UFR27, genotype TEM-1, SHV-28, CTX-M-15, OXA-204",> 256 µg/mL
same,MIC,"[2]; strain KPN UFR28, genotype TEM-1, SHV-1, CTX-M-15, OXA-1, OXA-232",> 256 µg/mL
same,MIC,"[2]; strain KPN UFR65, genotype TEM-1, SHV-11, KPC-2",> 256 µg/mL
same,MIC,"[2]; strain KPN UFR66, genotype TEM-1, SHV-11, CTX-M-15, KPC-2",> 256 µg/mL
same,MIC,"[2]; strain KPN UFR67, genotype TEM-1, SHV-11, KPC-3",> 256 µg/mL
same,MIC,"[2]; strain KPN UFR68, genotype TEM-1, SHV-11, CTX-M-15, KPC-3",> 256 µg/mL
same,MIC,"[2]; strain KPN UFR76, genotype TEM-155, SHV-11, ACT-1, OXA-2",> 256 µg/mL
same,MIC,"[2]; strain KPN UFR77, genotype CMY-2, read-out: MIC",64 µg/mL
same,MIC,"[2]; strain KPN UFR78, genotype TEM-1, SHV-1, CTX-M-15, CMY-2, OXA-1, OXA-48",> 256 µg/mL
same,MIC,"[2]; strain KPN UFR79, genotype DHA-1, OXA-1, read-out: MIC",256 µg/mL
same,MIC,"[2]; strain KPN UFR80, genotype SHV-11, DHA-1, OXA-1, read-out: MIC",1 µg/mL
same,MIC,"[2]; strain KPN UFR81, genotype TEM-1, SHV-1, DHA-1, OXA-48",> 256 µg/mL
same,MIC,"[2]; strain KPN UFR215, genotype SHV-27, CTX-M-15",> 256 µg/mL
same,MIC,"[2]; strain KPN UFR216, genotype SHV-28, CTX-M-15",> 256 µg/mL
same,MIC,"[2]; strain KPN UFR217, genotype TEM-1, SHV-1, CTX-M-15",> 256 µg/mL
same,MIC,"[2]; strain KPN UFR219, genotype SHV-12, CTX-M-15",> 256 µg/mL
same,MIC,"[2]; strain KPN UFR220, genotype TEM-1, SHV-12, DHA-1",> 256 µg/mL
same,MIC,"[2]; strain KPN UFR221, genotype TEM-1, SHV-11, CTX-M-14, DHA-1, read-out: MIC",128 µg/mL
same,MIC,"[2]; strain KPN UFR222, genotype DHA-2",> 256 µg/mL
same,MIC,"[2]; strain KPN UFR227O, genotype TEM-x, SHV-x, CTX-M-x",> 256 µg/mL
same,MIC,[3],> 256 µg/mL
same,MIC,"[3]; strain MMO 200321, genotype TEM-1, CTX-M-15, OXA-1, read-out: MIC",256 µg/mL
same,MIC,"[3]; strain MMO UFR144, genotype TEM-1, CTX-M-15, read-out: MIC",128 µg/mL
same,MIC,"[3]; strain MMO UFR240, genotype CTX-M-9, read-out: MIC",64 µg/mL
same,MIC,"[3]; strain MMO UFR241, genotype TEM-1, CTX-M-15, read-out: MIC",128 µg/mL
same,MIC,"[3]; strain MMO UFR243, genotype DHA-1, read-out: MIC",64 µg/mL
same,MIC,"[3]; strain MMO UFR244, genotype DHA-1, read-out: MIC",32 µg/mL
same,MIC,"[3]; strain MMO UFR245, genotype DHA-1, read-out: MIC",64 µg/mL
same,MIC,"[3]; strain MMO UFR246, genotype DHA-1, read-out: MIC",64 µg/mL
same,MIC,"[3]; strain MMO UFR247, genotype DHA-1, read-out: MIC",128 µg/mL
same,MIC,"[4]; strain PRE UFR99, genotype OXA-1, OXA-181",> 256 µg/mL
same,MIC,"[4]; strain PRE UFR236, genotype TEM-1, OXA-48",> 256 µg/mL

# Reference: patent publication US20200017495A1, “NOVEL HETEROCYCLIC COMPOUNDS AND THEIR USE IN PREVENTING OR TREATING BACTERIAL INFECTIONS” (priority 2017, published 2020)
